Assays:
Assay in all cases: relative viability (nuclei count vs DMSO), 5 days (fraction); higher = more cells survive
Pemetrexed + Decitabine = compound: Nc1nc2[nH]cc(CCc3ccc(C(=O)N[C@@H](CCC(=O)O)C(=O)O)cc3)c2c(=O)[nH]1 [Pemetrexed] + Nc1ncn([C@H]2C[C@H](O)[C@@H](CO)O2)c(=O)n1 [Decitabine] (partner 2 µM)
Procedure, shortened: (§1)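 Lung cancer cell lines in 1536-well plates were dosed by pin tool the day after seeding, either with one drug alone or with a fixed anchor-drug dose plus five library-drug doses (not always all listed) in √10 steps. After 5 days, cells were fixed and their nuclei stained in one step (final 0.05% Triton X-100, 1% formaldehyde, 1 ug/ml Hoechst), then counted on 4× images. Relative viability is the nuclei count in treated wells divided by that in vehicle wells. Values are medians of duplicate plates.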

Pemetrexed + Foretinib = compound: Nc1nc2[nH]cc(CCc3ccc(C(=O)N[C@@H](CCC(=O)O)C(=O)O)cc3)c2c(=O)[nH]1 [Pemetrexed] + COc1cc2c(Oc3ccc(NC(=O)C4(C(=O)Nc5ccc(F)cc5)CC4)cc3F)ccnc2cc1OCCCN1CCOCC1 [Foretinib] (partner 0.25 µM)
Procedure, shortened: as §1

Idelalisib + Crizotinib = compound: CC[C@H](Nc1ncnc2[nH]cnc12)c1nc2cccc(F)c2c(=O)n1-c1ccccc1 [Idelalisib] + C[C@@H](Oc1cc(-c2cnn(C3CCNCC3)c2)cnc1N)c1c(Cl)ccc(F)c1Cl [Crizotinib] (partner 1 µM)
Procedure, shortened: as §1

Idelalisib + Lapatinib = compound: CC[C@H](Nc1ncnc2[nH]cnc12)c1nc2cccc(F)c2c(=O)n1-c1ccccc1 [Idelalisib] + CS(=O)(=O)CCNCc1ccc(-c2ccc3ncnc(Nc4ccc(OCc5cccc(F)c5)c(Cl)c4)c3c2)o1 [Lapatinib] (partner 2 µM)
Procedure, shortened: as §1

Cell Line | relative viability (Pemetrexed + Decitabine; first compound 0.002 µM) | relative viability (Pemetrexed + Decitabine; first compound 0.006325 µM) | relative viability (Pemetrexed + Decitabine; first compound 0.02 µM) | relative viability (Pemetrexed + Decitabine; first compound 0.06325 µM) | relative viability (Pemetrexed + Decitabine; first compound 0.2 µM) | relative viability (Pemetrexed + Foretinib; first compound 0.002 µM) | relative viability (Pemetrexed + Foretinib; first compound 0.006325 µM) | relative viability (Pemetrexed + Foretinib; first compound 0.02 µM) | relative viability (Pemetrexed + Foretinib; first compound 0.06325 µM) | relative viability (Pemetrexed + Foretinib; first compound 0.2 µM) | relative viability (Idelalisib + Crizotinib; first compound 0.04 µM) | relative viability (Idelalisib + Crizotinib; first compound 0.1265 µM) | relative viability (Idelalisib + Crizotinib; first compound 0.4 µM) | relative viability (Idelalisib + Crizotinib; first compound 1.265 µM) | relative viability (Idelalisib + Crizotinib; first compound 4 µM) | relative viability (Idelalisib + Lapatinib; first compound 0.04 µM) | relative viability (Idelalisib + Lapatinib; first compound 0.1265 µM) | relative viability (Idelalisib + Lapatinib; first compound 0.4 µM) | relative viability (Idelalisib + Lapatinib; first compound 1.265 µM) | relative viability (Idelalisib + Lapatinib; first compound 4 µM)
NCI-H2087 | 0.268 | 0.237 | 0.332 | 0.238 | 0.262 | 1.09 | 1.01 | 1.17 | 0.986 | 0.783 | 0.894 | 0.911 | 0.901 | 1.1 | 0.93 | 1.15 | 1.06 | 1.13 | 1.11 | 1.18
BEN | 0.657 | 0.767 | 0.813 | 0.668 | 0.719 | 0.739 | 0.739 | 0.83 | 0.615 | 0.726 | 0.875 | 1.06 | 0.751 | 0.886 | 0.661 | 0.88 | 0.635 | 0.613 | 0.73 | 0.602
NCI-H3122 | 0.452 | 0.379 | 0.413 | 0.417 | 0.305 | 0.931 | 0.972 | 0.973 | 0.973 | 0.72 | 0.296 | 0.28 | 0.3 | 0.283 | 0.289 | 1.06 | 0.981 | 1.05 | 1.03 | 1.05
LCLC-97TM1 | 0.241 | 0.245 | 0.203 | 0.233 | 0.209 | 1.01 | 0.81 | 0.886 | 0.872 | 0.886 | 0.338 | 0.212 |  | 0.422 | 0.295 | 0.913 | 1.28 |  | 1.08 | 0.602
COR-L23 | 0.419 | 0.465 | 0.554 | 0.225 | 0.188 | 1.01 | 1.07 | 0.946 | 0.497 | 0.239 | 0.881 | 0.678 | 0.67 | 0.712 | 0.393 | 1.09 | 1.14 | 0.711 | 1.29 | 0.926
EMC-BAC-2 | 0.965 | 0.882 | 1 | 0.971 | 0.64 | 1.02 | 0.923 | 1.01 | 1 | 0.902 | 0.788 | 0.796 | 0.676 | 0.742 | 0.732 | 0.91 | 0.953 | 0.827 | 0.905 | 0.833
NCI-H1944 | 0.378 | 0.37 | 0.405 | 0.427 | 0.458 |  | 0.83 | 0.922 | 0.831 | 0.837 | 1.38 | 0.994 | 1.02 | 0.976 | 0.97 | 0.969 | 0.857 | 0.637 | 0.826 | 0.668
A-427 | 0.585 | 0.537 | 0.545 | 0.572 | 0.544 | 0.994 | 1.02 | 1.08 | 0.961 | 0.929 | 1.05 | 1.04 | 0.789 | 1.05 | 0.755 | 1.11 | 1.06 | 1.04 | 1.07 | 1.04
NCI-H520 | 0.504 | 0.453 | 0.538 | 0.479 | 0.494 | 0.787 | 0.749 | 0.848 | 0.693 | 0.738 | 0.782 | 0.727 | 0.717 | 0.737 | 0.623 | 0.776 | 0.999 | 0.717 | 0.923 | 0.684
NCI-H650 | 0.287 | 0.31 |  | 0.293 | 0.313 | 1.07 | 0.97 | 1.08 | 0.988 | 1.02 | 0.947 | 0.673 | 0.652 | 0.664 | 0.669 | 1.17 | 1.07 | 0.944 | 0.924 | 0.877
COR-L 105 | 0.672 | 0.692 | 0.699 | 0.633 | 0.685 | 0.97 | 1.16 | 1.17 | 1.15 | 1.24 | 0.702 | 0.948 | 0.709 | 0.778 | 0.775 | 0.385 | 0.353 | 0.294 | 0.374 | 0.362
NCI-H1755 | 0.708 | 0.738 | 0.734 | 0.693 | 0.695 | 0.871 | 0.925 | 0.94 | 0.923 | 0.849 | 0.812 | 0.878 | 0.832 | 0.745 | 0.671 | 1.11 | 0.999 | 0.966 | 1.06 | 0.97
NCI-H2085 | 0.584 | 0.513 | 0.53 | 0.527 | 0.642 | 1.03 | 0.737 | 1.11 | 0.966 | 1.17 | 0.86 | 0.897 | 0.761 | 0.736 | 0.81 | 0.744 | 0.757 | 0.687 | 0.723 | 0.503
NCI-H2023 | 0.181 | 0.206 | 0.246 | 0.173 | 0.125 |  | 0.739 | 0.885 | 0.888 | 0.319 | 0.63 | 0.662 | 0.487 | 0.579 | 0.54 | 0.837 | 1.01 | 0.525 | 0.775 | 0.724
HOP-62 | 0.198 | 0.262 | 0.249 | 0.204 | 0.2 | 0.892 | 1.02 | 1.2 | 1.09 | 1.07 | 0.944 | 0.964 |  | 0.806 | 1.03 | 1 | 0.912 |  | 1.47 | 1.06

Reference: the supplement of paper PMC10307832
